# Measured values from BindingDB's records for PubMed 39140043 (Usona Institute).
# Target: GTPase KRas (Homo sapiens, UniProt P01116)
# Experiment: Inhibition of GDP bound KRAS G12V mutant (unknown origin)
# GTPase KRas, sequence (P01116 whole entry G12V): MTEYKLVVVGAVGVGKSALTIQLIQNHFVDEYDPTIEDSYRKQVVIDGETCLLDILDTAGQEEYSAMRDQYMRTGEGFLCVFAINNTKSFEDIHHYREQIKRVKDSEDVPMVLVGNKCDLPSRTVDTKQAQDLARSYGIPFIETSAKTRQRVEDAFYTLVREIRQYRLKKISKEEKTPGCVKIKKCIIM
compound,measurement,value
C#Cc1c(F)ccc2cc(O)cc(-c3ncc4c(N(C)[C@H]5C[C@@H]5F)nc(OCC56CCCN5CC(=C)C6)nc4c3F)c12 (stereo partly specified),IC50,0.371 nM
